For eleven compounds, IC50 results are on record in patent publication US20240190890A1, “MK2 INHIBITORS AND USES THEREOF” (Bristol-Myers Squibb Company, priority 2022, published 2024).

The target of this test is p38a activated, mitogen-activated protein kinase-activated protein kinase 2 (MAPKAP-K2 or MK2) enzyme (Homo sapiens (Human), UniProt P49137). Briefly: MK2 Omnia continuous-read kinase assay for compound potency. It is filed as biochemical. The conditions noted are these: [MK-2]=0.4 nM, [ATP]=10 μM, [ST3-Sox]=10 μM; room temperature. The source says: Mitogen-Activated Protein Kinase-Activated Protein Kinase 2 Omnia® Assay for Compound Potency Assessment:
The protocol below describes a continuous-read kinase assay optimized to measure potency of compounds against p38a activated, mitogen-activated protein kinase-activated protein kinase 2 (MAPKAP-K2 or MK2) enzyme. Further details of this assay are described by Life Technologies, Carlsbad, CA on their website at the following URL: http://tools.lifetechnologies.com/content/sfs/manuals/omnia_kinase_assay_man.pdf. • [Reagent] used: • [MK-2]=0.4 nM, • [ATP]=10 μM and • [ST3-Sox]=10 μM (ATP^appKM=10 μM)
Briefly, 10× stock solutions of MK2 (PV3317, from Life Technologies), 1.13X ATP (AS001A), and Sox conjugated peptide substrate, S/T3-Sox, (KZN1031) were prepared in 1× kinase reaction buffer consisting of 20 mM Tris, pH 7.5, 5 mM MgCl2, 1 mM EGTA, 5 mM β-glycerophosphate, 5% glycerol (10× stock, KB001A) and 0.2 mM DTT (DS001A). Enzyme solution (5 μL) was added to each of DMSO ([…]) or serially diluted test compounds prepared in DMSO in a Corning (#3574) 384-well, white, non-binding surface microtiter plate (Corning, NY). Kinase reactions were started with the addition of 45 μL of the ATP-peptide substrate S/T3-Sox mix and monitored every 71 seconds for 120 minutes at λex360/λem485 in a Synergy H4 plate reader from BioTek (Winooski, VT) at room temperature.
Background signals from the no enzyme control wells were subtracted from all progress curves. The initial linear portions of the net progress curves were fit according to a linear equation to yield the slope and percentage of inhibition (% inhibition) at each compound concentration. The net progress curves obtained during the first two hours of reactions were also fit according to an ascending single-exponential equation (Eq. 1) to yield kobs values at each compound concentration. Plots of % Inhibition versus inhibitor concentrations were fit according to a dose-response equation (Eq. 2) to generate IC50 and Hill slope values while plots of kobs versus inhibitor concentration were fit according to Equation 3 (Eq. 3) to generate apparent kinact/K1 values using the GraphPad PRISM software (Version 6.00; GraphPad San Diego, CA).
where F is the fluorescence intensity from the plate reader, V0 is a constant reflecting the relationship between the instrument readout and product concentration, t is time, e is Euler's number, and kobs is the observed inactivation rate constant.
where % Inhibition is percentage of inhibition, IC50 is half maximal inhibitory concentration, [I] is the inhibitor concentration, and n is the Hill slope.
where kobs is the observed inactivation rate constant, kinact is the apparent inactivation rate constant, K1 is the apparent inhibition constant, and [I] is the inhibitor concentration. […] Potency results for the compounds tested are shown in Table 4 in the column entitled “MK2 IC50.”

Sequence of p38a activated, mitogen-activated protein kinase-activated protein kinase 2 (MAPKAP-K2 or MK2) enzyme (P49137 whole entry): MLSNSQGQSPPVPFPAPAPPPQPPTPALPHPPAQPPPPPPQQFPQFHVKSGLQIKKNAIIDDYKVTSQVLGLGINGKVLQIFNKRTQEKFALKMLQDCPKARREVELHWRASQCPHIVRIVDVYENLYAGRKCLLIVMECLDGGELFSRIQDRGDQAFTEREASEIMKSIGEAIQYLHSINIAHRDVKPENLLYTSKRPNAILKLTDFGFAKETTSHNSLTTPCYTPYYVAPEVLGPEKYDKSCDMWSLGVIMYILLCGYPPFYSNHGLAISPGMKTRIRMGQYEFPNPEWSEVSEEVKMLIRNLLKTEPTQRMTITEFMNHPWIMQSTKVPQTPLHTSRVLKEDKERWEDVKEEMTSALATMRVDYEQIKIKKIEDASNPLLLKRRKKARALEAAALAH

In the case of `C=Cc1nc(Cl)c(Cl)n1-c1ccc2c(ccc3sc4c(c32)NC[C@@H](C)NC4=O)n1` [Example I-251, (R)-3-(4,5-dichloro-2-vinyl-1H-imidazol-1-yl)-10-methyl-9,10,11,12-tetrahydro-8H-[1,4]diazepino[5′,6′:4,5]thieno[3,2-f]quinolin-8-one], the IC50 is 192 nM. Then `C=Cc1nc(-c2ccc3c(ccc4sc5c(c43)NC[C@@H](C)NC5=O)n2)cnc1C` [Example I-166, (R)-10-methyl-3-(5-methyl-6-vinylpyrazin-2-yl)-9,10,11,12-tetrahydro-8H-[1,4]diazepino[5′,6′:4,5]thieno[3,2-f]quinolin-8-one], with 181 nM. For the compound `C[C@@H]1CNc2c(sc3ccc4nc(-c5cc(Cl)nc(C6CCN(C)CC6)c5)ccc4c23)C(=O)N1` [Example I-103, (R)-3-(2-chloro-6-(1-methylpiperidin-4-yl)pyridin-4-yl)-10-methyl-9,10,11,12-tetrahydro-8H-[1,4]diazepino[5′,6′:4,5]thieno[3,2-f]quinolin-8-one], the IC50 worked out at 46 nM.

`C[C@@H]1CNc2c(sc3ccc4nc(-n5c(Br)nc(Cl)c5Cl)ccc4c23)C(=O)N1` [Example I-250, (R)-3-(2-bromo-4,5-dichloro-1H-imidazol-1-yl)-10-methyl-9,10,11,12-tetrahydro-8H-[1,4]diazepino[5′,6′:4,5]thieno[3,2-f]quinolin-8-one]: the IC50 came out at 580 nM. On to `C#Cc1nc(CN2CCN(C)CC2)cc(-c2ccc3c(ccc4sc5c(c43)NC[C@@H](C)NC5=O)n2)n1` [Example I-89, (R)-3-(2-ethynyl-6-((4-methylpiperazin-1-yl)methyl)pyrimidin-4-yl)-10-methyl-9,10,11,12-tetrahydro-8H-[1,4]diazepino[5′,6′:4,5]thieno[3,2-f]quinolin-8-one], for which the IC50 came out at 26 nM.

As to `[2H]C([2H])([2H])N1CCN(c2cc(-c3ccc4c(ccc5sc6c(c54)NC[C@@H](C)NC6=O)n3)cc(C#C)n2)CC1` [Example I-172, (R)-3-(2-ethynyl-6-(4-(methyl-d3)piperazin-1-yl)pyridin-4-yl)-10-methyl-9,10,11,12-tetrahydro-8H-[1,4]diazepino[5′,6′:4,5]thieno[3,2-f]quinolin-8-one], the IC50 was 97 nM. Then `C=Cc1cc(-c2ccc3c(ccc4sc5c(c43)NC[C@@H](C)NC5=O)n2)c(CC)cn1` [Example I-195, (R)-3-(5-ethyl-2-vinylpyridin-4-yl)-10-methyl-9,10,11,12-tetrahydro-8H-[1,4]diazepino[5′,6′:4,5]thieno[3,2-f]quinolin-8-one], with 13 nM; and `C=Cc1nc(-c2ccc3c(ccc4sc5c(c43)NC[C@@H](C)NC5=O)n2)nn1C` [Example I-208, (R)-10-methyl-3-(1-methyl-5-vinyl-1H-1,2,4-triazol-3-yl)-9,10,11,12-tetrahydro-8H-[1,4]diazepino[5′,6′:4,5]thieno[3,2-f]quinolin-8-one], with 285 nM. Consider `C[C@@H]1CNc2c(sc3ccc4nc(-n5ccnc5Cl)ccc4c23)C(=O)N1` [Example I-205, (R)-3-(2-chloro-1H-imidazol-1-yl)-10-methyl-9,10,11,12-tetrahydro-8H-[1,4]diazepino[5′,6′:4,5]thieno[3,2-f]quinolin-8-one], for which the IC50 came to 97 nM.

Turning to `C[C@@H]1CNc2c(sc3ccc4nc(-c5nc(Cl)ncc5C(F)(F)F)ccc4c23)C(=O)N1` [Example I-4, (R)-3-(2-chloro-5-(trifluoromethyl)pyrimidin-4-yl)-10-methyl-9,10,11,12-tetrahydro-8H-[1,4]diazepino[5′,6′:4,5]thieno[3,2-f]quinolin-8-one], the IC50 stood at 1 nM. As for `C=Cc1sncc1-c1ccc2c(ccc3sc4c(c32)NC[C@@H](C)NC4=O)n1` [Example I-229, (R)-10-methyl-3-(5-vinylisothiazol-4-yl)-9,10,11,12-tetrahydro-8H-[1,4]diazepino[5′,6′:4,5]thieno[3,2-f]quinolin-8-one], the IC50 came to 123 nM.

The term IC50 denotes the midpoint of a concentration-inhibition curve.
